Data from US4117108A, “Oral hygiene” (Noxell Corporation, priority 1976, dated 1978).

Assays:
[1] = test system: pellicle and plaque growth on extracted human teeth and plastic strip; assay: Inhibition of plaque/pellicle formation on extracted human teeth (mounted on polymethylmethacrylate strip) with composition added to the media (Example 20 procedure); design: species or system human saliva / human teeth; conditions: for pellicle and plaque formation/inhibition on the teeth: 0.1 ml of 1% by weight in distilled water added to about 200 ml media, second 24 h at about 37° C
Experimental: A set of three extracted human teeth without the roots is mounted on a polymethylmethacrylate plastic strip of about 1 inch × 3 inches. A drop of human saliva is applied to each tooth and allowed to dry. The set of teeth is then placed in a petri dish and covered with about 200 ml of an aqueous solution of about 2% trypticase and about 4% sucrose. The dish is then inoculated with an additional 1 ml of human saliva and then incubated at about 37° C for about 24 hours.
Next, the set of teeth is removed from the media, rinsed, and then dipped into a 0.5% aqueous solution of FD & C RED No. 3 to visually disclose the plaque.
The teeth are then brushed with water using an electric toothbrush fitted with a soft nylon brush until all of the red disclosed plaque and/or pellicle is removed.
The teeth are then swabbed with human saliva, placed in a petri dish covered with about 200 ml of the trypticase-sucrose media and about 0.1 ml of a composition containing 1% by weight DL-N-carboxymethylmethyl-N,N-dimethyl-N-(3-palmitamidopropyl) ammonium betaine and the remainder being distilled water. The contents of the dish are then inoculated with an additional 1 ml of saliva and incubated for about 24 hours at about 37° C. At the end of the 24 hours, the set of teeth is removed from the media, dried, and dipped into a 0.5% FE & C RED No. 3 solution for about 60 seconds to visually disclose the presence of pellicle and plaque and is then rinsed under tap water.

[2] = test system: plaque and pellicle growth on extracted human teeth; assay: Inhibition of plaque/pellicle redeposition on extracted human teeth brushed with the composition, then incubated with saliva (Example 1A procedure)
Experimental: A set of three extracted human teeth without the roots is mounted on a plastic strip of about 1 inch × 3 inches. The teeth are then swabbed with human saliva using a sterile Dacron swab and allowed to dry for about 15 minutes. The strip is then placed in a petri dish and covered with about 200 ml of an aqueous solution of about 2% trypticase and about 4% sucrose. Each dish is then inoculated with an additional 1 ml of human saliva and then incubated at about 37° C for about 24 hours.
Next, the set of teeth is removed from the media, dried, and then dipped into a 0.5% aqueous solution of FD & C RED No. 3 to visually disclose the plaque. The strip is then rinsed under tap water.
The teeth are then brushed with an electric toothbrush […], […], until all of the red disclosed plaque is removed and are then rinsed.
The teeth are then again swabbed with human saliva, placed in a petri dish covered with the trypticase-sucrose media, which is then inoculated with an additional 1 ml of saliva and incubated for about 24 hours at about 37° C. At the end of the 24 hours, the set of teeth is removed from the media, dried, and dipped into a 0.5% FD & C RED No. 3 solution for about 60 seconds to visually disclose the presence of plaque and is then rinsed under tap water.
All of the above examples employed new sets of teeth or plastic strips and new brushes for the brushing, respectively. Any NaCl present in the composition is due to its presence in the available compositions of the fatty acid amido compounds.

Acute oral LD50 study = conditions: in vivo, rat, palmitic amido betaine purified according to Example 10
Experimental: An acute oral LD50 study was done on rats for Schercotaine PAB in mature albino rats.
Palmitic amido betaine purified according to Example 10 is also tested according to the above procedure.

[3] = test system: plaque and/or pellicle growth on polymethyl methacrylate strips; assay: Inhibition of plaque/pellicle growth on polymethyl methacrylate strips brushed with the composition (Example 16 procedure); design: species or system human saliva; conditions: second 24 h
[4] = test system: plaque and pellicle formation; assay: Observed plaque/pellicle retardation (general statements, test not specified at the place); conditions: for plaque inhibition activity: various compositions with about 5% betaine, including (isostearic) 24% glycerin, 1% propylene glycol, 0.75% carboxymethyl cellulose, 69.25% water
[5] = test system: pellicle and plaque growth on extracted human teeth and plastic strip; assay: Inhibition of plaque/pellicle formation on extracted human teeth (mounted on polymethylmethacrylate strip) with composition added to the media (Example 20 procedure); design: species or system human saliva / human teeth; conditions: 0.1 ml of 1% by weight in propylene glycol; second 24 h

## CCCCCCCC/C=C\CCCCCCCC(=O)NCCC[N+](C)(C)C(C)C(=O)[O-] (racemic) [DL-N-carboxymethylmethyl-N,N-dimethyl-N-(3-oleylamidopropyl) ammonium betaine]
[1]
  pellicle and plaque formation/inhibition on the teeth: inhibits plaque and pellicle formation on the teeth

## CCCCCCCCCCCCCCCC(=O)NCCC[N+](C)(C)CC(=O)[O-] [palmitic amido betaine]
[2]; Example 1A: about 25% palmitic amido betaine, 2-5% NaCl, remainder water (Schercotaine PAB), brushed and rinsed, second 24 h at 37° C
  plaque growth on teeth / inhibition of plaque redeposition: effectively inhibits the redeposition of dental plaque on the teeth
[2]; Example 2: about 20% betaine, 10% ethyl alcohol, 70% water, second 24 h
  pellicle and plaque inhibition: provides pellicle and plaque inhibition although not as great as the preparation employed in Example 1A
[2]; Example 4: about 10% betaine, 8% silica gel (Syloid 244), 36.4% sorbitol, up to 5% NaCl, water, second 24 h
  prevention of pellicle and plaque formation: complete prevention of pellicle and plaque formation on the teeth
[2]; Example 5: about 2.5% betaine, 10% ethyl alcohol, up to 5% NaCl, water, brushed and dipped, not rinsed, second 24 h
  pellicle or plaque formation: no pellicle or plaque formation on the set of teeth
[2]; Example 8: about 10 parts betaine, 35.7 sorbitol, 8 silica QUSO G-30, 1 propylene glycol, 45 water, second 24 h
  pellicle and plaque inhibition: complete pellicle and plaque inhibition on the teeth
[2]; Example 9: about 10 parts betaine, 35.7 sorbitol, 8 silica QUSO G-32, 1 propylene glycol, 45 water, second 24 h
  inhibition of pellicle and plaque growth: complete inhibition of pellicle and plaque growth
[2]; Example 10: about 10% purified betaine, 90% water, 24 h
  inhibition of plaque and pellicle growth: complete inhibition of plaque and pellicle growth on the teeth
[2]; Example 11: about 5% purified betaine, 95% water, 24 h
  inhibition of plaque and pellicle growth: partial inhibition of plaque and pellicle growth on the teeth
[2]; Example 12: about 30 parts betaine in paste with sorbitol, glycerin, carboxymethyl cellulose, Syloid 244, hydrated alumina, pH about 6.4, second 24 h
  inhibition of pellicle and plaque growth: complete inhibition of pellicle and plaque growth on the teeth
[2]; Example 13: about 25 parts purified betaine in paste with sorbitol, carboxymethyl cellulose, hydrated alumina, Syloid 244, glycerin, second 24 h
  plaque and pellicle inhibition: complete plaque and pellicle inhibition on the teeth
[2]; Example 14: about 30 parts purified betaine in paste with Pluronic F-68, sorbitol, carboxymethyl cellulose, hydrated alumina, Syloid 244, second 24 h
  inhibition of plaque and pellicle growth: complete inhibition of plaque and pellicle growth on the teeth
Acute oral LD50 study
  LD50: 2400 mg/kg
[3]; Example 17B: Denta Fresh ingredients with Tegobetaine C replaced by 15% palmitic amido betaine
  prevention of plaque and/or pellicle growth: does not prevent plaque and/or pellicle growth
[4]; about 2.5% betaine, about 10% silica, about 56% sorbitol, up to 5% NaCl, water, with rinsing
  retardation of plaque formation: did not retard plaque formation
[4]; about 2.5% or less betaine, about 10% ethyl alcohol, up to about 5% NaCl, water, with rinsing
  retardation of plaque formation: did not retard plaque formation
[4]; about 5% betaine, about 8% silica, about 50.5% sorbitol, about 36.5% water
  retardation of plaque formation: marginally effective in that sometimes the composition exhibited retardation of plaque while other times the composition did not
[4]; about 5% betaine, about 95% water
  retardation of plaque formation: retarded plaque formation
[4]; same compositions (2.5% or less with ethyl alcohol; 2.5% with silica/sorbitol), no rinsing after treatment
  prevention of plaque formation: prevented the formation of plaque

## CCCCCCCCCCCCCCCCCC(=O)NCCC[N+](C)(C)CCC(=O)[O-] [N-carboxyethyl-N,N-dimethyl-N-(3-stearamidopropyl) ammonium betaine]
[1]
  pellicle and plaque formation/inhibition on the teeth: inhibits plaque and pellicle formation on the teeth

## CCCCCCCCCCCCCCCC(=O)NCCC[N+](C)(C)CCC(=O)[O-] [N-carboxyethyl-N,N-dimethyl-N-(3-palmitamidopropyl) ammonium betaine]
[1]
  pellicle and plaque formation/inhibition on the teeth: complete inhibition of plaque and pellicle formation on the teeth
[1]; 0.1 ml of 1% by weight in distilled water, second 24 h
  plaque and/or pellicle on the plastic strip: very slight plaque and/or pellicle on the plastic strip

## CCCCCCCCCCCCCCCCCC(=O)NCCC[N+](C)(C)CC(=O)[O-] [stearic amido betaine]
[4]
  plaque inhibition activity: did not exhibit plaque inhibition activity

## CCCCCCCC/C=C\CCCCCCCC(=O)NCCC[N+](C)(C)CC(=O)[O-] [oleic amido betaine]
[2]; Example 7: about 25% betaine, up to 5% NaCl, water (Schercotaine OAB), second 24 h
  inhibition of pellicle and plaque growth: almost complete inhibition of pellicle and plaque growth on the teeth

## CCCCCCCC/C=C\CCCCCCCC(=O)NCCC[N+](C)(C)CCS(=O)(=O)[O-] [2-[N,N-dimethyl-N-(3-oleylamidopropyl)-amino] ethanesulfobetaine]
[5]
  activity against plaque and pellicle formation on the teeth: exhibits activity against plaque and pellicle formation on the teeth
  plaque growth on teeth and plastic: Very slight plaque growth is observed on teeth and plastic

## CCCCCCCC/C=C\CCCCCCCC(=O)NCCC[N+](C)(C)CCC(=O)[O-] [N-carboxyethyl-N,N-dimethyl-N-(3-oleylamidopropyl) ammonium betaine]
[1]
  pellicle and plaque formation/inhibition on the teeth: inhibits plaque and pellicle formation on the teeth

## CCCCCCCCCCCCCCCC(=O)NCCC[N+](C)(C)C(C)C(=O)[O-] (racemic) [DL-N-carboxymethylmethyl-N,N-dimethyl-N-(3-palmitamidopropyl) ammonium betaine]
[1]
  pellicle and plaque formation/inhibition on the teeth: No pellicle and plaque growth are observed on the teeth

## CCCCCCCCCCCCCCCC(=O)NCCC[N+](C)(C)CCS(=O)(=O)[O-] [2-[N,N-dimethyl-N-(3-palmitamidopropyl)-amino] ethanesulfobetaine]
[5]
  activity against plaque and pellicle formation on the teeth: exhibits activity against plaque and pellicle formation on the teeth
  plaque growth on teeth and plastic: Only slight plaque growth is observed on the teeth and plastic

## CCCCCCCCCCCCCCCCCC(=O)NCCC[N+](C)(C)C(C)C(=O)[O-] (racemic) [DL-N-carboxymethylmethyl-N,N-dimethyl-N-(3-stearamidopropyl) ammonium betaine]
[1]
  pellicle and plaque formation/inhibition on the teeth: slight activity against plaque and pellicle formation on the teeth

## isostearic amido betaine
[2]; Example 3: about 35% betaine, 2-5% NaCl, remainder water (Schercotaine IAB), second 24 h
  plaque and pellicle inhibition: good plaque and pellicle inhibition
[2]; Example 6: about 5% betaine, 24% glycerin, 0.75% hydroxyethyl cellulose, 1% propylene glycol, up to 5% NaCl, water, second 24 h
  pellicle and plaque inhibition: moderate pellicle and plaque inhibition
[2]; Example 15: about 14% betaine, 86% water, second 24 h
  plaque and pellicle on the teeth: no plaque and pellicle are present on the teeth
[3]; Example 17C: Denta Fresh ingredients with Tegobetaine C replaced by 15% isostearic amido betaine
  prevention of plaque and/or pellicle growth: does not prevent plaque and/or pellicle growth
[4]; about 5% betaine, similar composition with about 0.75% hydroxyethyl cellulose in place of carboxymethyl cellulose
  plaque inhibition: retarded plaque formation and exhibited moderate plaque inhibition
[4]
  plaque inhibition activity: did not exhibit plaque inhibition activity
